Laboratory results published in patent US11529340B2 (priority 2016, dated 2022).
Entries after “also recorded” stand apart in the source; their conditions may differ. Where two headings read alike, the source gives them in different places.

Experiments:
[1] = system: MORs and DORs in CFA-inflamed mice; assay: Antagonism of Lo-OMI anti-hyperalgesia by opioid antagonists (Hargreaves, CFA); assay type: in vivo; details: intraplantar and subcutaneous; β-FNA 24 hours before, others co-administered
[2] = system: HEK-293 cells transfected with opioid receptors (mu, delta, kappa homomers; mu-delta, mu-kappa, kappa-delta heteromers); assay: Intracellular calcium release assay (FLIPR); assay type: cell-based; details: HEK-293 with chimeric Δ6-Gqi4-myr, opioid receptor homomers and heteromers
Protocol: The target compounds were tested for agonist activity using an intracellular calcium release assay. Briefly, HEK-293 cells were transfected with a chimeric Δ6-Gqi4-myr protein employed to measure intracellular Ca^+2 ion release upon receptor activation. Cells stably expressing the chimeric protein were selected from transiently transfected cells in zeocin-containing medium (DMEM+10% fetal bovine serum+1% penicillin/streptomycin+[…] zeocin). Opioid receptors were transiently transfected using different combinations of DNA for heteromers (mu-delta, mu-kappa, kappa-delta) or for singly expressing homomers (mu, delta, kappa). Intracellular calcium release was measured using a FLIPR calcium kit (Molecular Devices) in a FlexStation3 apparatus. For each compound, concentration-response profiles were established by measuring the fluorescence for 90 seconds after addition of the compound and determining the peak effect (maximum-minimum). A concentration-response curve was plotted for the change in Relative Fluorescence Units (ΔRFU) vs. concentration. The calcium mobilization of the antagonist NTI and partial agonist OMI were studied.

[3] = system: CFA-induced hyperalgesia in mice; assay: Hargreaves assay, CFA-induced inflammatory hyperalgesia; assay type: in vivo; details: for ED50: Mus musculus
[4] = system: thermal nociceptive responses in mice; assay: Hot water tail flick test, intrathecal injection, naive mice; assay type: in vivo
Protocol: Subjects were given an intrathecal injection of loperamide, OMI, or combination, and post-drug response were analyzed as a % of maximum possible effect, which was used to generate dose-response curves.
Thermal nociception was measured either using a warm water tail flick test or using the Hargreaves hindpaw method as described previously (Hargreaves, K. et al., Pain 32: 77-88, 1988). Briefly, animals were placed on a heated glass floor (30° C.) and a small plastic box restricted their movement. After allowing the animals to acclimate to the testing environment for a minimum of 15 minutes, a radiant heat lamp was shone on the left hindpaw until the animal withdrew the paw. Paw withdrawal latencies (PWLs) were measured by an IITC plantar stimulator analgesia meter, and a cutoff time of 20 seconds was used to prevent tissue damage. An average of 3-5 PWLs were taken, with a minimum of 30 seconds between tests.
Data Analysis: The ED50, in nanomoles with 95% confidence limits, of all agonists and combinations were calculated using the graded dose-response curve method of Tallarida and Murray (Tallarida, R. J. and Murray, R. B., Manual of pharmacological calculations with computer programs, pp. 26-31, Springer-Verlag, NY, 1987). […] Isobolographic analyses were performed using the numerical method (Tallarida, Pain 49: 93-97, 1992; Ossipov et al., Anesthesiology 86:1-9 1997). […]

[5] = system: SNI-induced allodynia in mice; assay: Spared nerve injury (SNI)-induced mechanical allodynia, electronic von Frey; details: subcutaneous
[6] = system: thermal nociceptive responses in naive mice; assay: Hargreaves assay, naive mice; assay type: in vivo
[7] = system: light-driven mEPSC frequency in spinal cord slices from Nav1.8-ChR2 mice; assay: Spinal cord slice electrophysiology: inhibition of 470 nm light-evoked mEPSCs; assay type: cell-based; details: increasing concentrations superfused on slice
mice [8] = details: cited from earlier work
mice [9] = assay: Naloxone withdrawal jumping protocol (dependence); assay type: in vivo; details: for dependence: naloxone-precipitated
Protocol: Morphine, OMI and BOMI were tested for dependence using the naloxone withdrawal jumping protocol (Marshall, I. et al., Br. J. Pharmacol. 1969, 37, 505P-506P; and El-kadi, A. O. et al., General Pharmacology: The Vascular System 1994, 25, 1505-1510). On day one the ED80 dose was injected 3 times per day 4 hours apart using the s.c. route of administration. On day 2 two times ED80 and day 3 and 4 with four times the ED80 were injected at the same times used on day one. On the fifth day each animal received a bolus of the top dose followed three hours later by a single dose of naloxone s.c. (10 or 50 mg/kg) and placed in individual circular Plexiglas observation chambers (6.5″×9″). […] At 10 mg/kg and 50 mg/kg naloxone precipitated withdrawal in the morphine-treated animals with a mean 91.5 jumps and 99.3 jumps, respectively. The average number of jumps for both OMI and BOMI after both doses of naloxone was 1 jump.

mice [10] = assay: Antinociceptive tolerance, day 1 vs day 2 % MPE; assay type: in vivo; details: i.t.
Protocol: Eighty percent effective doses of OMI (4) or BOMI (6) were administered either i.c.v. or i.t. once on day 1 and again on day 2 and the % MPE determined on both days.

mice [11] = assay: Antinociceptive potency (% MPE) after i.t. or i.c.v. administration; assay type: in vivo
Protocol: OMI (4) or BOMI (6) were administered via either i.t. or i.c.v. routes and percent maximum possible antinociception (% MPE) determined at 5 or 10 min post-treatment, respectively.

mice [12] = assay: Oral gavage antinociception (% MPE) in mice; assay type: in vivo; details: for time of peak antinociceptive effect: oral gavage; for % MPE: oral, 5 mg/kg
Protocol: Animals are restrained by the scruff and held upright (vertically) to maintain a straight line from the mouth to the esophagus. Prior to dosing, the distance from the oral cavity to the caudal point of the sternum is gauged with the gavage needle. Using a bulb-tipped gastric gavage needle attached to a 1 mL syringe, the needle is passed along the roof of the animal's mouth and into the esophagus, stopping at the pre-measured distance. The drug is slowly injected and the needle removed. Drugs are administered in a volume of 10 mL/kg.

mice [13] = assay: In vivo antagonism of OMI and BOMI antinociception by opioid antagonists; details: agonist administered intrathecally and intracerebroventricularly
Protocol: FIGS. 1a-1d show antagonism studies of OMI and BOMI (6) in vivo from Example 2.
OMI (Portoghese, P. S., et al., J. Med. Chem. 1990, 33, 1714-20) and BOMI were tested in vivo. […] Oral gavage of OMI and (6) produced the peak antinociceptive effect at 30 minutes; further they were taken in vivo studies in mice and challenged by antagonists such as NTI, norBNI and β-FNA. The results are depicted in FIGS. 1a-1d. […] Therefore, it was concluded that OMI and (6) both are MOR-DOR heteromer-selective agonists.

mice [14] = details: intrathecal; cited from earlier work
[15] = sc, subcutaneous (systemic), CFA-inflamed, read-out: ED50 (anti-hyperalgesia)
[16] = systemic, CFA-inflamed, loperamide + BOMI co-administered, read-out: ED50 of the drug with the other drug (loperamide or BOMI) present
[17] = intraplantar, CFA-inflamed, loperamide + BOMI co-administered
[18] = topical solution on inflamed hindpaw, CFA
[19] = Mus musculus, sc, 0.75 h, subcutaneous, CFA-naive, tested 45 minutes later, read-out: ED50
[20] = intraplantar, naive, tested 15 minutes later
[21] = naloxone s.c. 10 mg/kg after escalating s.c. dosing
[22] = naloxone s.c. 50 mg/kg after escalating s.c. dosing

## Oc1ccc2c3c1O[C@H]1c4[nH]c5ccccc5c4C[C@@]4(O)[C@@H](C2)N(CC2CC2)CC[C@]314 [NTI, naltrindole]
[1]
  reversal of the anti-hyperalgesic effects of Lo-OMI: significantly reversed the anti-hyperalgesic effects of Lo-OMI in a dose-dependent manner
[2]
  calcium mobilization profile: devoid of any calcium mobilization; also recorded: did not show calcium mobilization in any cell line tested

## COC(=O)/C=C/C(=O)N[C@@H]1CC[C@@]2(O)[C@H]3Cc4ccc(O)c5c4[C@@]2(CCN3CC2CC2)[C@H]1O5 [β-FNA, beta-funaltrexamine]
[1]
  reversal of the anti-hyperalgesic effects of Lo-OMI: significantly reversed the anti-hyperalgesic effects of Lo-OMI in a dose-dependent manner

## CN(C)C(=O)C(CCN1CCC(O)(c2ccc(Cl)cc2)CC1)(c1ccccc1)c1ccccc1 [loperamide]
[3]; [15]
  ED50: 2.42 mg/kg
[3]; [16]
  ED50: 0.06 mg/kg
[3]; intraplantar, CFA-inflamed
  ED50 (anti-hyperalgesia): 6.37 nmol
[3]; [17]
  ED50 of the drug when the other drug (loperamide or BOMI) is also present: 0.5 nmol
[3]; [18]
  ED50 (anti-hyperalgesia): 227 µM
[4]
  ED50: 5.44 nmol
[5]
  time of peak anti-allodynia post-injection: 1 h
[6]; [19]
  ED50: 12.4 mg/kg
[6]; [20]
  ED50: 57.2 nmol
[7]
  inhibition of light-driven mEPSC frequency: inhibited mEPSC frequency in a concentration-dependent manner

## Clc1cccc(Cl)c1N=C1NCCN1 [clonidine]
Mice [8]; literature or earlier results, route as stated
  impairment of rotarod performance / motor function: dose-dependently and fully impairs rotarod performance

## CN1CC[C@]23c4c5ccc(O)c4O[C@H]2[C@@H](O)C=C[C@H]3[C@H]1C5 [morphine]
Mice [9]; [21]
  number of jumps in 10 minutes (mean): 91.5 jumps
Mice [9]; [22]
  number of jumps in 10 minutes (mean): 99.3 jumps

## CN1CC[C@]23c4c5ccc(O)c4O[C@H]2c2c(c4ccccc4n2Cc2ccccc2)C[C@@]3(O)C1C5 [BOMI (6), (4bS,8aS,14bR)-14-benzyl-7-methyl-5,6,7,8,8a,9,14,14b-octahydro-4,8-methanobenzofuro[2,3-a]pyrido[4,3-b]carbazole-1,8a-diol]
[3]; [15]
  ED50: 0.08 mg/kg
[3]; [16]
  ED50: 0.003 mg/kg
[3]; intraplantar, CFA-inflamed
  ED50 (anti-hyperalgesia): 0.34 nmol
[3]; [17]
  ED50 of the drug when the other drug (loperamide or BOMI) is also present: 0.02 nmol
Mice [10]
  antinociceptive tolerance: neither agent injected i.t. produced antinociceptive tolerance
Mice [10]; listed as 6
  antinociceptive tolerance: did not produce tolerance
Mice [11]; i.c.v., % MPE at 10 min
  potency relative to parent compound OMI (4): three times more potent
Mice [11]; i.t., % MPE at 5 min
  potency relative to parent compound OMI (4): 20 times
Mice [12]
  time of peak antinociceptive effect: 30 min
Mice [12]; 20 min
  % MPE: 38.3 ± 10.4 % MPE
Mice [12]; 30 min
  % MPE: 19.6 ± 4.8 % MPE
Mice [12]; 60 min
  % MPE: 42.8 ± 6.2 % MPE
Mice [12]; 120 min
  % MPE: 38.4 ± 8.4 % MPE
Mice [9]; [21]
  number of jumps in 10 minutes (mean): 1 jumps
Mice [9]; [22]
  number of jumps in 10 minutes (mean): 1 jumps
Mice [9]; listed as 6
  dependence: neither OMI nor (6) produced dependence
Mice [9]; listed as BOMI
  dependence: did not create any dependence
Mice [13]
  antagonism by β-FNA: antagonized by β-FNA; also recorded: antagonism of (6) by β-FNA was more significant
[2]; listed as 6
  calcium mobilization profile: predominantly MOR-DOR heteromer-selective
[2]; listed as BOMI
  calcium mobilization profile: mixed, stimulation of MOR most active

## CN1CC[C@]23c4c5ccc(O)c4O[C@H]2c2[nH]c4ccccc4c2C[C@@]3(O)[C@H]1C5 [OMI (4), oxymorphindole]
Mice [14]
  interaction with the MOR agonist morphine: synergized with the MOR agonist morphine
[3]; [15]
  ED50: 1.12 mg/kg
[3]; intraplantar, CFA-inflamed
  ED50 (anti-hyperalgesia): 12.3 nmol
[3]; [18]
  ED50 (anti-hyperalgesia): 166 µM
Mice [10]
  antinociceptive tolerance: neither agent injected i.t. produced antinociceptive tolerance
Mice [10]; listed as OMI
  antinociceptive tolerance: did not produce tolerance
Mice [12]
  time of peak antinociceptive effect: 30 min
Mice [12]; 20 min
  % MPE: 38.0 ± 8.4 % MPE
Mice [12]; 30 min
  % MPE: 29.5 ± 4.5 % MPE
Mice [12]; 60 min
  % MPE: 38.5 ± 10.7 % MPE
[4]
  ED50: 3.52 nmol
[5]
  time of peak anti-allodynia post-injection: 1 h
[6]; [19]
  ED50: 5.13 mg/kg
[6]; [20]
  ED50: 33.7 nmol
[7]
  inhibition of light-driven mEPSC frequency: inhibited mEPSC frequency in a concentration-dependent manner
Mice [9]; [21]
  number of jumps in 10 minutes (mean): 1 jumps
Mice [9]; [22]
  number of jumps in 10 minutes (mean): 1 jumps
Mice [9]; listed as OMI
  dependence: neither OMI nor (6) produced dependence; also recorded: did not create any dependence
Mice [13]
  antagonism by β-FNA: antagonized by β-FNA
[2]
  calcium mobilization profile: demonstrated a profile of MOR-DOR heteromer selectivity
[2]; listed as OMI
  calcium mobilization profile: selective mobilization in the MOR-DOR co-expressing cell line

## C[C@]12N[C@H](Cc3ccccc31)c1ccccc12 [MK801]
Mice [8]; intrathecal
  ED50 for reduction in rotarod performance: 11 nmol
  reduction in rotarod performance: 80%

## C=CC[N+]1(C)CC[C@]23c4c5ccc(O)c4O[C@H]2C(=O)CC[C@@]3(O)[C@H]1C5 (stereo partly drawn) [naloxone methiodide]
[1]
  reversal of the anti-hyperalgesic effects of Lo-OMI: significantly reversed the anti-hyperalgesic effects of Lo-OMI in a dose-dependent manner; also recorded: completely ablated the behavioral anti-hyperalgesia
